Experimental data from US8639486B2, “Method for identifying inhibitors of Staphylococcus aureus” (Indian Institute of Science, priority 2010, dated 2014).
Residues, ends and D or L forms follow the SMILES beside them.

Molecular target: S. aureus N-Succinyl-L,L-DAP Desuccinylase (DapE), SEQ ID NO: 2 (Staphylococcus aureus, UniProt Q5HF23)
Assay: qualitative dipeptidase activity (TLC assay)
Assay type: biochemical, Staphylococcus aureus COL
Design: key: +: Mild hydrolytic activity; ++: Moderate hydrolytic activity; +++: High hydrolytic activity
Conditions: 5.0 mg/mL dipeptide, 2 μg DapE, 50 mM Tris-HCl pH 7.5, 37° C., 30 min

Chain of S. aureus N-Succinyl-L,L-DAP Desuccinylase (DapE), SEQ ID NO: 2 (Q5HF23 whole entry): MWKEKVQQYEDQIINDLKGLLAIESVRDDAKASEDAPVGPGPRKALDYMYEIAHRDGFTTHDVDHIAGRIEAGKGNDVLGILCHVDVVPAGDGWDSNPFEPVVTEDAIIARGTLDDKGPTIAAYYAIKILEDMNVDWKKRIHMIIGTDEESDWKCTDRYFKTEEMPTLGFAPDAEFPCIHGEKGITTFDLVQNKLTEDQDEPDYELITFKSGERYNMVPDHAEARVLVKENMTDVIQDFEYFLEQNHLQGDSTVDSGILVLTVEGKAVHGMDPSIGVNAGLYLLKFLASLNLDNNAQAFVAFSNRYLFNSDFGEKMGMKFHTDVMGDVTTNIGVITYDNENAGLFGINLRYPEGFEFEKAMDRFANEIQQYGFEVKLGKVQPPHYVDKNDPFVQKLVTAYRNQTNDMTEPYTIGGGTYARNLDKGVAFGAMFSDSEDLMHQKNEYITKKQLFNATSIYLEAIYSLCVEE

| Compound | Activity (qualitative dipeptidase / hydrolytic activity) |
| --- | --- |
| NCCCC[C@H](NC(=O)[C@@H](N)CC(=O)O)C(=O)O [Asp-Lys] (H-Asp-Lys-OH) | + |
| C[C@H](N)C(=O)N[C@@H](CO)C(=O)O [Ala-Ser] (H-Ala-Ser-OH) | + |
| CC(C)C[C@H](NC(=O)[C@@H](N)CCCCN)C(=O)O [Lys-Leu] (H-Lys-Leu-OH) | ++ |
| NCCCC[C@H](NC(=O)CN)C(=O)O [Gly-Lys] (H-Gly-Lys-OH) | + |
| CC(C)[C@H](NC(=O)[C@@H](N)CCCN=C(N)N)C(=O)O [Arg-Val] (H-Arg-Val-OH) | +++ |
| C[C@H](NC(=O)[C@@H](N)CCCN=C(N)N)C(=O)O [Arg-Ala] (H-Arg-Ala-OH) | +++ |
| CC(C)[C@H](NC(=O)[C@@H](N)Cc1ccccc1)C(=O)O [Phe-Val] (H-Phe-Val-OH) | +++ |
| NCCCC[C@H](N)C(=O)N[C@@H](Cc1ccccc1)C(=O)O [Lys-Phe] | ++ |
| CC(C)C[C@H](NC(=O)[C@@H](N)Cc1cnc[nH]1)C(=O)O [His-Leu] (H-His-Leu-OH) | + |
| NCC(=O)N[C@@H](CO)C(=O)O [Gly-Ser] (H-Gly-Ser-OH) | + |
| N[C@@H](CO)C(=O)N[C@@H](Cc1cnc[nH]1)C(=O)O [Ser-His] (H-Ser-His-OH) | ++ |
| CC[C@H](C)[C@H](NC(=O)[C@@H](N)CCCN=C(N)N)C(=O)O [Arg-Ile] (H-Arg-Ile-OH) | +++ |
| CC(C)C[C@H](NC(=O)[C@@H](N)CCCN=C(N)N)C(=O)O [Arg-Leu] (H-Arg-Leu-OH) | +++ |

System: botanical DapA (N. sylvestris)
Assay: not given
Conditions: highly sensitive, read-out: IC50 of feedback inhibition by L-lysine; cited from earlier work

| Compound | IC50 [mM] |
| --- | --- |
| NCCCC[C@H](N)C(=O)O [L-lysine] | 0.015 to 0.02 |

Molecular target: DapA from gram negative bacteria (E. coli) (Escherichia coli, UniProt P0A6L2)
Sequence (P0A6L2 whole entry): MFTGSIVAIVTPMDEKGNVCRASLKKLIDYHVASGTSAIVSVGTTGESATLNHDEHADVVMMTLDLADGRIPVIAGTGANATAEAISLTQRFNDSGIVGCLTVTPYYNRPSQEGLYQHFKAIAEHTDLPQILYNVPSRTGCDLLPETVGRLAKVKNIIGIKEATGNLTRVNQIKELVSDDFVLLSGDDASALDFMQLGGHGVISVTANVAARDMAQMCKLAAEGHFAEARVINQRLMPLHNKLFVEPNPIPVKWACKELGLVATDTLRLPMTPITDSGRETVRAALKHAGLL
Assay: not given
Conditions: less sensitive, read-out: IC50 of feedback inhibition by L-lysine; cited from earlier work

| Compound | IC50 [mM] |
| --- | --- |
| NCCCC[C@H](N)C(=O)O [L-lysine] | 100 |

System: CC(C)[C@H](NC(=O)[C@@H](N)Cc1ccccc1)C(=O)O
Assay: purified protein, by the assay type
Conditions: other: holo-DapE + Mn^2+ + TCEP, Phe-Val, pH 7.5, 37° C.

| Compound | Km [µM] |
| --- | --- |
| S. aureus N-Succinyl-L,L-DAP Desuccinylase (DapE), holo form, SEQ ID NO: 2 (Staphylococcus aureus subsp. aureus COL) | 1100 ± 100 |

Same assay, conditions: other: holo-DapE + Mn^2+, Phe-Val, pH 7.5, 37° C.

| Compound | Km [µM] |
| --- | --- |
| S. aureus N-Succinyl-L,L-DAP Desuccinylase (DapE), holo form, SEQ ID NO: 2 (Staphylococcus aureus subsp. aureus COL) | 1150 ± 120 |

Same assay, conditions: other: holo-DapE, Phe-Val, pH 7.5, 37° C.

| Compound | Km [µM] |
| --- | --- |
| S. aureus N-Succinyl-L,L-DAP Desuccinylase (DapE), holo form, SEQ ID NO: 2 (Staphylococcus aureus subsp. aureus COL) | 670 ± 100 |
